For test [1], the system named is four MDR protease variants. The following applies: four clinical MDR isolates, enzyme inhibition assays, relative to NL4-3 (WT). From the text:
HIV protease Forster Resonance Energy Transfer (FRET) substrate I used in the IC50 determination and substrate interference was purchased from AnaSpec, Inc. (Fremont, CA, USA). The US FDA-approved HIV-1 protease inhibitors were kindly provided by the NIH AIDS Research and Reference Reagent Program (www.aidsreagent.org). The CA/p2 pseudopeptide with a reduced scissile peptide bond [-ψ(CH2NH)-] was synthesized in the Department of Chemistry, Wayne State University. The nine substrate hepta-peptides were purchase from SynBioSci Corporation, Livermore, CA, USA. […] The IC50 determination was described previously. […] The protease concentration was adjusted to a substrate cleavage velocity of 5 Relative Fluorescence Units (RFU)/min in the absence of regular substrate. […] Upon the addition of the HIV-1 protease, the fluorescent signal emitted through the cleavage of the FRET substrate was recorded using SpectraMax M5 (Molecular Devices, Sunnyvale, CA, USA) at an excitation wavelength of 340 nm and an emission wavelength of 490 nm. The average velocity of FRET substrate cleavage in RFU/min was calculated based on fluorescent signal at 30 time point over 30 min. In the control experiment, the average velocity of FRET substrate cleavage was determined in the absence of regular substrates. […]

Test [2] addresses T1, HIV-1 protease NL4-3 (Human immunodeficiency virus type 1 group M subtype B, UniProt P12497, Q495K).
T1 construct: made in house; host or cells: E. coli (pET21b)
Put plainly: HIV-1 protease inhibition (FRET substrate cleavage), NL4-3 (WT). It is filed as biochemical. The conditions noted are these: FRET substrate I, 0.1 M sodium acetate, 1.0 M NaCl, 1.0 mM EDTA, 1.0 mM DTT, 10% DMSO, 1 mg/mL BSA, pH 4.7, fluorescence 340/490 nm, read-out: IC50 of HIV-1 protease inhibitors.
Method: (§1) The HIV-1 protease reaction buffer was 0.1 M sodium acetate, 1.0 M sodium chloride, 1.0 mM ethylenediaminetetraacetic acid (EDTA), 1.0 mM DTT, 10% dimethylsulfoxide (DMSO), and 1 mg/mL bovine serum albumin (BSA) at pH 4.7. The protease concentration was adjusted to a substrate cleavage velocity of 5 Relative Fluorescence Units (RFU)/min in the absence of regular substrate. […] Upon the addition of the HIV-1 protease, the fluorescent signal emitted through the cleavage of the FRET substrate was recorded using SpectraMax M5 (Molecular Devices, Sunnyvale, CA, USA) at an excitation wavelength of 340 nm and an emission wavelength of 490 nm. The average velocity of FRET substrate cleavage in RFU/min was calculated based on fluorescent signal at 30 time point over 30 min.

The target of test [3] is T2, HIV-1 protease MDR 3761 (Human immunodeficiency virus type 1 group M subtype B, UniProt P12497, A559I/G561T/I503V/I552V/I572V/I581L/K508I/L498I/L507I/L551P/L578M/M534I/P567S/Q495K/T500A).
T2 construct: made in house; host or cells: E. coli (pET21b)
Put plainly: HIV-1 protease inhibition (FRET substrate cleavage), MDR 3761. Type of test: biochemical. The following applies: FRET substrate I, 0.1 M sodium acetate, 1.0 M NaCl, 1.0 mM EDTA, 1.0 mM DTT, 10% DMSO, 1 mg/mL BSA, pH 4.7, fluorescence 340/490 nm, read-out: IC50 of HIV-1 protease inhibitors.
Method: as §1

The target of test [4] is T3, HIV-1 protease MDR 807 (Human immunodeficiency virus type 1 group M subtype B, UniProt P12497, A559V/G536V/I542T/I550V/I581L/L498I/L551Q/M534I/Q495K/Q549N/R529K/T562A/V565I/V570A).
T3 construct: made in house; host or cells: E. coli (pET21b)
Put plainly: HIV-1 protease inhibition (FRET substrate cleavage), MDR 807. It is filed as biochemical. The following applies: FRET substrate I, 0.1 M sodium acetate, 1.0 M NaCl, 1.0 mM EDTA, 1.0 mM DTT, 10% DMSO, 1 mg/mL BSA, pH 4.7, fluorescence 340/490 nm, read-out: IC50 of HIV-1 protease inhibitors.
Method: as §1

The target of test [5] is T4, HIV-1 protease MDR 769 (Human immunodeficiency virus type 1 group M subtype B, UniProt P12497, A559V/I542V/I550V/I572V/L498I/L551P/L578M/M524V/M534L/Q495K/V570A).
T4 construct: made in house; host or cells: E. coli (pET21b)
Nature of the test: HIV-1 protease inhibition (FRET substrate cleavage), MDR 769. Type of test: biochemical. The following applies: FRET substrate I, 0.1 M sodium acetate, 1.0 M NaCl, 1.0 mM EDTA, 1.0 mM DTT, 10% DMSO, 1 mg/mL BSA, pH 4.7, fluorescence 340/490 nm, read-out: IC50 of HIV-1 protease inhibitors.
Method: as §1

The target in test [6] is T5, HIV-1 protease MDR 1385 (Human immunodeficiency virus type 1 group M subtype B, UniProt P12497, A559V/I581L/L498F/L551P/L577M/L578M/M524I/M534I/N525D/Q495K/R545K/V570T).
T5 construct: made in house; host or cells: E. coli (pET21b)
Put plainly: HIV-1 protease inhibition (FRET substrate cleavage), MDR 1385. The following applies: FRET substrate I, 0.1 M sodium acetate, 1.0 M NaCl, 1.0 mM EDTA, 1.0 mM DTT, 10% DMSO, 1 mg/mL BSA, pH 4.7, fluorescence 340/490 nm, read-out: IC50 of HIV-1 protease inhibitors. Type of test: biochemical.
Method: as §1

Regarding `Cc1cccc(C)c1OCC(=O)N[C@@H](Cc1ccccc1)[C@@H](O)C[C@H](Cc1ccccc1)NC(=O)[C@H](C(C)C)N1CCCNC1=O` [LPV, lopinavir], the “resistance of MDR variants to inhibitors (in words)” value in test [1] is “lower relative resistance”.

`CCC[C@@]1(CCc2ccccc2)CC(O)=C([C@H](CC)c2cccc(NS(=O)(=O)c3ccc(C(F)(F)F)cn3)c2)C(=O)O1` [TPV, tipranavir]: the IC50 – broadly, the concentration needed to halve the response being measured – stood at 0.24 nM in test [2]; 0.63 nM in test [3]; 0.63 nM in test [4]; 0.65 nM in test [5]; 2.8 nM in test [6].

Turning to `COC(=O)N[C@H](C(=O)N[C@@H](Cc1ccccc1)[C@@H](O)CN(Cc1ccc(-c2ccccn2)cc1)NC(=O)[C@@H](NC(=O)OC)C(C)(C)C)C(C)(C)C` [ATV, atazanavir], the IC50 in test [2] was determined as 0.19 nM; in test [3] it was 2.2 nM; in test [4] it was 7.6 nM; in test [5] it was 2.9 nM; in test [6] it was 4.6 nM.

In the case of `Cc1c(O)cccc1C(=O)N[C@@H](CSc1ccccc1)[C@H](O)CN1C[C@H]2CCCC[C@H]2C[C@H]1C(=O)NC(C)(C)C` [NFV, nelfinavir], the IC50 in test [2] amounted to 1.6 nM; in test [3] it was 430 nM; in test [4], 210 nM; in test [5] it was 110 nM; in test [6] it was 230 nM.

Consider `CC(C)CN(C[C@@H](O)[C@H](Cc1ccccc1)NC(=O)O[C@H]1CCOC1)S(=O)(=O)c1ccc(N)cc1` [APV, amprenavir], for which the 50% inhibitory concentration (IC50) in test [2] was determined as 0.43 nM; in test [3] it was 4.1 nM; in test [4], 2.9 nM; in test [5], 4.8 nM; in test [6], 3.1 nM.

Source of the values: publication PMC4011036, “Higher Desolvation Energy Reduces Molecular Recognition in Multi-Drug Resistant HIV-1 Protease” (Biology, 2012).
